# US8202887B2, “2-(substituted-amino)-benzothiazole sulfonamide HIV protease inhibitors” (Janssen R&D Ireland, priority 2006, dated 2012)
# Where two headings read alike, the source gives them in different places.
# Assays:
# Type in all cases: cell-based
# [1] = tested on: clinically isolated HIV strain B; test: Cellular anti-viral assay in MT4-LTR-EGFP cells, mutant strain B; conditions: for pEC50 virus strain B: MT4-LTR-EGFP cells, three days, GFP signal
# Experimental: (§1) Because of the increasing emergence of drug resistant HIV strains, the present compounds were tested for their potency against clinically isolated HIV strains harboring several mutations. These mutations are associated with resistance to protease inhibitors and result in viruses that show various degrees of phenotypic cross-resistance to the currently commercially available drugs such as for instance saquinavir, ritonavir, nelfinavir, indinavir and amprenavir. The viral strains coded as A, B, C and D contain mutations as indicated below in Table 2.
# (§2) The cellular assay was performed according to the following procedure. HIV- or mock-infected MT4-LTR-EGFP cells were incubated for three days in the presence of various concentrations of the compounds according to the invention. Upon infection, the viral tat protein activates the GFP reporter. At the end of the incubation period, the GFP signal was measured. In the virus control samples (in the absence of any inhibitor) the maximal fluorescent signal was obtained. The inhibitory activity of the compound was monitored on the virus-infected cells and was expressed as EC50. These values represent the amount of the compound required to protect 50% of the cells from virus infection. (Table 3).
# [2] = tested on: clinically isolated HIV strain C; test: Cellular anti-viral assay in MT4-LTR-EGFP cells, mutant strain C; conditions: for pEC50 virus strain C: MT4-LTR-EGFP cells, three days, GFP signal
# Experimental: as §1, §2
# [3] = tested on: clinically isolated HIV strain A; test: Cellular anti-viral assay in MT4-LTR-EGFP cells, mutant strain A; conditions: for pEC50 virus strain A: MT4-LTR-EGFP cells, three days, GFP signal
# Experimental: as §1, §2
# [4] = tested on: wild type laboratory HIV strain (WT IIIB-2-001); test: Cellular anti-viral assay in MT4-LTR-EGFP cells, wild type strain
# Experimental: The compounds were tested in a cellular assay using the MT4-LTR-EGFP cells for anti-viral activity.
# The cellular assay was performed according to the following procedure. HIV- or mock-infected MT4-LTR-EGFP cells were incubated for three days in the presence of various concentrations of the compounds according to the invention. Upon infection, the viral tat protein activates the GFP reporter. At the end of the incubation period, the GFP signal was measured. […] The inhibitory activity of the compound was monitored on the virus-infected cells and was expressed as EC50. These values represent the amount of the compound required to protect 50% of the cells from virus infection.
# [5] = tested on: clinically isolated HIV strain D; test: Cellular anti-viral assay in MT4-LTR-EGFP cells, mutant strain D; conditions: for pEC50 virus strain D: MT4-LTR-EGFP cells, three days, GFP signal
# Experimental: as §1, §2
# [6] = MT4-LTR-EGFP cells, three days, GFP signal
Structure (SMILES),pEC50 virus strain B [1],pEC50 virus strain C [2],pEC50 virus strain A [3],"pEC50 WT-IIIB-2-001 [4, 6]",pEC50 virus strain D [5],"EC50 ([1]; Human immunodeficiency virus 1, 72 h, read-out: pEC50 virus strain B (converted))","EC50 ([2]; Human immunodeficiency virus 1, 72 h, read-out: pEC50 virus strain C (converted))","EC50 ([3]; Human immunodeficiency virus 1, 72 h, read-out: pEC50 virus strain A (converted))","EC50 ([4]; Human immunodeficiency virus 1, IIIB, 72 h, MT4-LTR-EGFP cells, three days, GFP signal, read-out: pEC50 WT-IIIB-2-001 (converted))","EC50 ([5]; Human immunodeficiency virus 1, 72 h, read-out: pEC50 virus strain D (converted))",pEC50 WT-IIIB-2-001 [4]
CC(C)CN(C[C@@H](O)[C@H](Cc1ccccc1)NC(=O)O[C@H]1CO[C@H]2OCC[C@H]21)S(=O)(=O)c1ccc2nc(NC3CCN(C(=O)CN4CCOCC4)CC3)sc2c1 [Compound 10],6.52,5.11,6.84,6.53,6.62,,,,,,
"CC(C)CN(C[C@@H](O)[C@H](Cc1ccccc1)NC(=O)O[C@H]1CO[C@H]2OCC[C@H]21)S(=O)(=O)c1ccc2nc(NC3CCN(Cc4ccccc4)CC3)sc2c1 [Compound 11, (1-Benzyl-3-{[2-(1-benzyl-piperidin-4-ylamino)-benzothiazole-6-sulfonyl]-isobutyl-amino}-2-hydroxy-propyl)-carbamic acid hexahydro-furo[2,3-b]furan-3-yl ester]",,,,,,33.9 nM,5750 nM,22.4 nM,2.51 nM,18.6 nM,
CC(C)CN(C[C@@H](O)[C@H](Cc1ccccc1)NC(=O)O[C@H]1CO[C@H]2OCC[C@H]21)S(=O)(=O)c1ccc2nc(NC3CCN(Cc4ccncc4)CC3)sc2c1 [Compound 12],7.71,5.19,8.26,8.34,8.27,,,,,,
CC(C)CN(C[C@@H](O)[C@H](Cc1ccccc1)NC(=O)O[C@H]1CO[C@H]2OCC[C@H]21)S(=O)(=O)c1ccc2nc(NC3CCN(Cc4ccccn4)CC3)sc2c1 [Compound 13],7.94,6.04,8.06,8.18,7.98,,,,,,
CC(C)CN(C[C@@H](O)[C@H](Cc1ccccc1)NC(=O)O[C@H]1CO[C@H]2OCC[C@H]21)S(=O)(=O)c1ccc2nc(NC3CCN(Cc4cccnc4)CC3)sc2c1 [Compound 14],7.78,5.90,7.85,,7.84,,,,,,7.85
CC(C)CN(C[C@@H](O)[C@H](Cc1ccccc1)NC(=O)O[C@H]1CO[C@H]2OCC[C@H]21)S(=O)(=O)c1ccc2nc(NC3CCN(Cc4cncs4)CC3)sc2c1 [Compound 15],7.71,5.46,8.38,,8.24,,,,,,8.24
CC(C)CN1CCC(Nc2nc3ccc(S(=O)(=O)N(CC(C)C)CC(O)C(Cc4ccccc4)NC(=O)OC4COC5OCCC45)cc3s2)C1 (stereo not shown) [Compound 19],7.33,5.35,7.84,8.42,7.75,,,,,,
CC(C)CN1CCC(Nc2nc3ccc(S(=O)(=O)N(CC(C)C)CC(O)C(Cc4ccccc4)NC(=O)OC4COC5OCCC45)cc3s2)C1 (stereo not shown) [Compound 20],7.84,5.59,8.23,8.27,8.12,,,,,,
CC(C)CN(CC(O)C(Cc1ccccc1)NC(=O)OC1COC2OCCC12)S(=O)(=O)c1ccc2nc(NC3CCN(Cc4cncs4)C3)sc2c1 (stereo not shown) [Compound 23],7.56,5.36,8.56,7.97,8.27,,,,,,
CC(C)CN(CC(O)C(Cc1ccccc1)NC(=O)OC1COC2OCCC12)S(=O)(=O)c1ccc2nc(NC3CCN(Cc4cncs4)C3)sc2c1 (stereo not shown) [Compound 24],7.70,5.08,7.91,8.22,7.89,,,,,,
CC(C)CN(CC(O)C(Cc1ccccc1)NC(=O)OC1COC2OCCC12)S(=O)(=O)c1ccc2nc(NC3CCN(Cc4ccccn4)C3)sc2c1 (stereo not shown) [Compound 25],5.04,<4.49,5.59,5.77,5.41,,,,,,
